Test results published in PMC10590419, “Structural and mechanistic insights into the inhibition of respiratory syncytial virus polymerase by a non-nucleoside inhibitor” (Communications Biology, 2023).

How the values were obtained:
[1] = molecular target: T1, Human DNA polymerase beta (Homo sapiens, UniProt P06746); experiment: DNA-dependent DNA polymerase activity; assay type: biochemical; conditions: DNA Pol β
T1 construct: purchased CHIMERx
Protocol: (§1) to the method described previously 1. A 25 nM solution of RSV MTase-CTD protein or RSV L+P complex was incubated with 0.7 µM or 1.8 µM purified synthetic RNA 5’-Gppp […]
(§2) […] (RSV9) for the MTase-CTD or L+P complex, respectively; 2 µM or 0.17 µM S-adenosyl methionine (SAM) for the MTase-CTD or L–P complex, respectively; and 0.1 µM or 0.8 µM 3H-SAM (Perkin Elmer) for the MTase-CTD or L–P complex, respectively; in 50 mM Tris-HCl pH 8.0. Compounds, previously dissolved in DMSO were added at a final concentration of 50 µM or 200 µM. After 3 h incubation at 30°C, reactions were quenched by a 20-fold dilution in ice cold water. Samples were transferred to DEAE filtermats (Perkin Elmer) using a Filtermat Harvester (Packard Instruments). The RNA-retaining mats were washed twice with 10 mM ammonium formate pH 8.0, twice with water and once with ethanol. They were then soaked with scintillation fluid (Perkin Elmer), and 3H-methyl transfer to the RNA substrates was determined using a Wallac MicroBeta TriLux Liquid Scintillation Counter.
(§3) Cellular polymerase assays
(§4) DNA-dependant DNA polymerase (DdDp) activity
(§5) Human DNA polymerases alpha (CHIMERx) at 5 U/ml, beta (CHIMERx) at 0.5 U/ml and gamma (Abcam) at 0.1 mg/ml were incubated with the tested inhibitors at specified concentrations, and a reaction mix composed of 62 µg/ml activated calf thymus DNA, dGTP (2 µM), dATP (2 µM), dCTP (2 µM), [ 3H]dTTP (0.05 µCi/µl), 0.1 mg/ml BSA and a buffer composed of Tris-HCl pH 8 (50 mM), MgCl 2 (5 mM), KCl (60 mM), and DTT (4 mM.) in a total volume of 50 µl. After 2 hours incubation at 30°C, reaction was terminated by addition of 60 µl of a chilled stop solution composed of 20% (w/v) TCA with 0.5 mM ATP. […] Radioactivity was measured via liquid scintillation counting (MicroScint-20, 40µl) on a TriLux apparatus. […]
(§6) The RNA transcription activity of human mitochondrial RNA polymerase (POLRMT) was measured by the incorporation of radioactively labeled nucleotides by POLRMT into acid-insoluble RNA products as described previously 2. […]

[2] = molecular target: T2, Human DNA polymerase gamma (Homo sapiens, UniProt P54098); experiment: DNA-dependent DNA polymerase activity; assay type: biochemical; conditions: DNA Pol γ
T2 construct: purchased Abcam
T2 sequence (P54098 1-1239): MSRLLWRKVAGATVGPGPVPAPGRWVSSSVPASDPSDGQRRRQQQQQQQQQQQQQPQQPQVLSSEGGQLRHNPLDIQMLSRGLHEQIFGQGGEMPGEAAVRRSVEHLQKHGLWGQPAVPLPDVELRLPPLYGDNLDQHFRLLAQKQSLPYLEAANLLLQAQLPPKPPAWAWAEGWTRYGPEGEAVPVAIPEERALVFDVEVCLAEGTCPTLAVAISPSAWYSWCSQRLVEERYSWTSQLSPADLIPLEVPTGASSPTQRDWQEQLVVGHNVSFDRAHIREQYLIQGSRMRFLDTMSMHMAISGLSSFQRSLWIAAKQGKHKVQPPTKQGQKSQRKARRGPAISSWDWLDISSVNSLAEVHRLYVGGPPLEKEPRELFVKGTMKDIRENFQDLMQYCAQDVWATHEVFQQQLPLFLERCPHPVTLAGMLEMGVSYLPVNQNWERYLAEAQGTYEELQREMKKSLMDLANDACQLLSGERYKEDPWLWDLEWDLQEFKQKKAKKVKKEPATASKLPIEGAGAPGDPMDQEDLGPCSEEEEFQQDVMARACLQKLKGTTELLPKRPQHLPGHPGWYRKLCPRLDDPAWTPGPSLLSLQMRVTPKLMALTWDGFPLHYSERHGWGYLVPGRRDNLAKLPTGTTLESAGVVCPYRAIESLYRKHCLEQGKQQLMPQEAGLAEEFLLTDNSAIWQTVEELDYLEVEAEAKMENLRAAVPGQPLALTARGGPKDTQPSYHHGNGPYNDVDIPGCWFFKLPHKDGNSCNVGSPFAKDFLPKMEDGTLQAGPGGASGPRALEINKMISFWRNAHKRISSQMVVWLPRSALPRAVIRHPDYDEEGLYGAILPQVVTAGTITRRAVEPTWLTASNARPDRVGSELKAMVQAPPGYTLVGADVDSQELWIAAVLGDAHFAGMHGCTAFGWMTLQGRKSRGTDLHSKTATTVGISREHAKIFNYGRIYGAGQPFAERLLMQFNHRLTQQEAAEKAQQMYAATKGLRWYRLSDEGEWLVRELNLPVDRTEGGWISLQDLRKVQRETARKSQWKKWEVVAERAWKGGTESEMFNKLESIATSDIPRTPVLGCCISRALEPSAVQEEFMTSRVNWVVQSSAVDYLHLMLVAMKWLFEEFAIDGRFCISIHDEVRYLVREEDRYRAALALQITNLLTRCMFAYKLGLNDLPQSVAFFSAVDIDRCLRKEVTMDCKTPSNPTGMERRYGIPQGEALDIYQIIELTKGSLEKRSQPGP
Protocol: as §1, §2, §3, §4, §5, §6

[3] = tested on: rgRSV224 (RSV A2 reporter virus); experiment: Inhibition of rgRSV224 reporter RSV in HeLa cells (GFP); conditions: human respiratory syncytial virus, 72 h, read-out: Median EC50
[4] = tested on: PIV-3 (recombinant JS-derived strain encoding GFP); assay type: cell-based, parainfluenza virus type 3
[5] = molecular target: RSV L+P complex (Human respiratory syncytial virus A, UniProt P28887); experiment: Surface plasmon resonance assay; assay type: binding, Human RSV (strain A2); conditions: SPR, 37°C
RSV L+P complex, sequence (P03421 whole entry): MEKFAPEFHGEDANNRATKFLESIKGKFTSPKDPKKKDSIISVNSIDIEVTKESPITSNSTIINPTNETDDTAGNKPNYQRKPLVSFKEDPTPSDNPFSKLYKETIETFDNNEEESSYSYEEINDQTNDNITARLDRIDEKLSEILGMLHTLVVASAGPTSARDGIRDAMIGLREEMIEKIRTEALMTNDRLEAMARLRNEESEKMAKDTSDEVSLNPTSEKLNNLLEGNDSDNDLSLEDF
RSV L+P complex, sequence (P28887 whole entry): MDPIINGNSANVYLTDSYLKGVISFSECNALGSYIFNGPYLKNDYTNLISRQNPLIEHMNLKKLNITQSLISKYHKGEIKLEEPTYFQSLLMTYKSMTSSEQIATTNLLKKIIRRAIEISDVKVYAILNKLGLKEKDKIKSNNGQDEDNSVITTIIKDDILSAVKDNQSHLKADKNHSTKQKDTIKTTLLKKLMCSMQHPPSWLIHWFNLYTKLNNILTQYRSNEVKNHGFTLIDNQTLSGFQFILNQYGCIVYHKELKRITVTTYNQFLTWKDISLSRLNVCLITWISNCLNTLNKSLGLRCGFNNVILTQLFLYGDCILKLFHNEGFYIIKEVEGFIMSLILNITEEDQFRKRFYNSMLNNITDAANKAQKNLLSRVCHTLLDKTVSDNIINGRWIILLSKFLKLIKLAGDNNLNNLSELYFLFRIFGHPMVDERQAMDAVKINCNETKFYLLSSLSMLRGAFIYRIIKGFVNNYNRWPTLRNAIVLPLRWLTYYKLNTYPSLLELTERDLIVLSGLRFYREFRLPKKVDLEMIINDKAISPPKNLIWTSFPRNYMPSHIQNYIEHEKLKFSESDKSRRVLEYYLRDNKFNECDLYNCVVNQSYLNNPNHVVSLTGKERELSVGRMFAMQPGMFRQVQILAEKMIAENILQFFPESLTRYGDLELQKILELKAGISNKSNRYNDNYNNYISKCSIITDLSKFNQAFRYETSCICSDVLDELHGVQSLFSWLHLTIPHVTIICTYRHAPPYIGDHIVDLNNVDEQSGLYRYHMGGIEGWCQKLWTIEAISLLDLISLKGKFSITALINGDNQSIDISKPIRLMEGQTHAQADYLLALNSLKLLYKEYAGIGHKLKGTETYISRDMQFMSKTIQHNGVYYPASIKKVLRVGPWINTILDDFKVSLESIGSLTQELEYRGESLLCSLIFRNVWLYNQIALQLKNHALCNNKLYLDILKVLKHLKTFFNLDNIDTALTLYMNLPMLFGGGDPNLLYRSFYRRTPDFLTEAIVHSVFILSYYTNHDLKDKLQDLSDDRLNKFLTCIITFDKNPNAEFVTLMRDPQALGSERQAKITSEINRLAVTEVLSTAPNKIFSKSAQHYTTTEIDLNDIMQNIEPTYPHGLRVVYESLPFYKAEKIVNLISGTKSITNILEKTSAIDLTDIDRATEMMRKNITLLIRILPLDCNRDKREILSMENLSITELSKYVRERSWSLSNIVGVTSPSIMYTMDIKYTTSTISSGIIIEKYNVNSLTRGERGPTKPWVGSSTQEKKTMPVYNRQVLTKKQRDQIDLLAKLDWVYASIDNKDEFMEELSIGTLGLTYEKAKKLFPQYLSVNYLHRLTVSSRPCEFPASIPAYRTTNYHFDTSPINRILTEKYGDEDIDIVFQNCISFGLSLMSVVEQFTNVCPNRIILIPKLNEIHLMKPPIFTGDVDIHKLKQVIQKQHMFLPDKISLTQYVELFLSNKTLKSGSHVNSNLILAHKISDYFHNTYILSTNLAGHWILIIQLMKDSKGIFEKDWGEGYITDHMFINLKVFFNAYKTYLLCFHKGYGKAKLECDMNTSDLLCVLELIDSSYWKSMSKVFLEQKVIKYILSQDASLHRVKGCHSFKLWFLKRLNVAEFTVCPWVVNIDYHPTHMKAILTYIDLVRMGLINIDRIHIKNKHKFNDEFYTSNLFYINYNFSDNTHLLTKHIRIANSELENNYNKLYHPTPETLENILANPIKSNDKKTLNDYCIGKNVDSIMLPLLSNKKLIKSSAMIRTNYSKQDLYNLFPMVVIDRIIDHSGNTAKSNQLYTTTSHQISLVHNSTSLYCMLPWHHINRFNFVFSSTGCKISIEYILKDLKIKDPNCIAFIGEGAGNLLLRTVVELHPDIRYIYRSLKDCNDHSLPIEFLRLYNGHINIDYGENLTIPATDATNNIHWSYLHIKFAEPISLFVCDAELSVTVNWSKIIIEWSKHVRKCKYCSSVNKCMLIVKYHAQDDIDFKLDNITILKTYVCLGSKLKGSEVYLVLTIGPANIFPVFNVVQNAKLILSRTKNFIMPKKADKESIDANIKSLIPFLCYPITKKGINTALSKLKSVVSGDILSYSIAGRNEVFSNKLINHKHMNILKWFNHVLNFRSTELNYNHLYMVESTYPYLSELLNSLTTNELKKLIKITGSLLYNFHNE

[6] = in vitro; conditions: human

## COc1cc(C(=O)NC[C@](O)(c2cc(C(C)(C)O)c(F)c(-c3ccc(F)cc3)n2)C(F)(F)F)cc2cc(C)nnc12 [JNJ-8003]
[1]
  IC50: > 100 µM
[2]
  IC50: > 100 µM
[3]
  EC50: 0.00078 µM
[4]
  inhibition (in words): negligible inhibition
[5]
  off-rate: 0.0000181 s⁻¹
  on-rate: 2.16e+06 M⁻¹ s⁻¹
[6]
  CC50 at 3 days: 27 µM
